The series is described as follows: n-Octanol/water partition coefficient, log P of the compound. The series is classed as physicochemical.
`CCCCCCCCCCCCCCCC(=O)NCCCC(O)(P(=O)(O)O)P(=O)(O)O` showed a logP of 0.053.

The molecule `CCCCCCCCCCCCCCCCCC(=O)NCCCC(O)(P(=O)(O)O)P(=O)(O)O` came in with a logP of 0.063.

Regarding `CCCCCCCCCCCC(=O)NCCCC(O)(P(=O)(O)O)P(=O)(O)O`, the logP was 0.027.

Consider `CCCCCCCCCCCCCC(=O)NCCCC(O)(P(=O)(O)O)P(=O)(O)O`, for which the lipophilicity (logP) worked out at 0.045.

One may read the logP as a log measure of how a compound divides between an organic and an aqueous phase. Low values mean lower lipophilicity, high ones higher lipophilicity.

Values taken from ChEMBL document CHEMBL5252553, “Synthesis and biological activities of drugs for the treatment of osteoporosis” (Eur J Med Chem, 2020).
